In article PMC5786495 (Cell, 2017):

System: NKI2 TCR-transduced peripheral blood lymphocytes
Assay: IFNγ production by NKI2-transduced lymphocytes with peptide-loaded JY cells
Format: cell-based, human
Conditions: NKI2 transduced T cells

ALDSRSEHFM
potency of stimulation relative to CDK4 neoantigen ALDPHSGHFV: as potently as the CDK4 neoantigen
